The nature of series [1]: Example 4: aqueous dissolution of branched-chain amino acids in a powdered nutritional product with varying myo-inositol, LC/UV of filtrate. It is filed as physicochemical. The settings on record: powdered nutritional product; particularly evident at 30 seconds across all concentrations. Here is the method: The LC/UV system used to perform the tests comprised the following: 1) Column: YMC ODS-AQ, 4.6 x 250 mm, 5 μm, Waters P/N AQ12S052546WT; 2) Mobile Phase: Milli-Q Plus water; 3) Flow Rate: 0.4 mL/minute; 4) Temperature: 40° C.; 5) Detection: UV at 192 nm; 6) Injection: 2 μL of filtrate; and 7) Run Time: 20 minutes.
Example 4 evaluates the effect that myo-inositol concentration has on the aqueous dissolution of branched-chain amino acids (valine, isoleucine, and leucine) in a powdered nutritional product. One serving (17.6 grams) of the powdered nutritional product contains 7.00 grams of a branched-chain amino acid blend comprising 50 wt. % leucine, 25 wt. % isoleucine, and 25 wt. % valine. A serving of the powdered nutritional product with a specified amount of myo-inositol was added to 16 fluid ounces of Milli-Q Plus water at 21° C. and stirred at 400 rpm. At each specified time point, an aliquot was obtained and filtered through a 0.45 μm PTFE membrane (Pall Life Sciences, Acrodisc CR 25, P/N 4501), and the filtrate was tested for valine, isoleucine, and leucine using the LC/UV method as described in Example 3.

Series [2] is described as follows: Example 5: effect of inositol isomers on dissolution of L-leucine, LC/UV of filtrate. It is filed as physicochemical. The settings on record: for Leu dissolved at 30 seconds (g/16 oz.) / Leu dissolved at 60 seconds (% of total Leu) / Leu dissolved at 60 seconds (g/16 oz.): 3.50 g L-leucine with 0.1 g/16 oz. inositol isomer, water 21° C., 400 rpm; for enhancement of dissolution rate of L-leucine by inositol isomer: 0.1 g isomer, 3.50 g L-leucine. As to the method:
The LC/UV system used to perform the tests comprised the following: 1) Column: YMC ODS-AQ, 4.6 x 250 mm, 5 μm, Waters […]; 2) Mobile Phase: Milli-Q Plus water; 3) Flow Rate: 0.4 mL/minute; 4) Temperature: 40° C.; 5) Detection: UV at 192 nm; 6) Injection: 2 μL of filtrate; and 7) Run Time: 20 minutes.

Values joined by “and” are separate entries in the source; they are usually repeats but may differ in a detail not shown here. Equal entries are not always repeated.

As to `O[C@H]1[C@H](O)[C@@H](O)[C@H](O)[C@@H](O)[C@H]1O` [myo-inositol], in series [1], the “effect of addition of myo-inositol on rate of dissolution of the branched-chain amino acids” value is on record as “enhanced the rate of dissolution”. In addition, in series [2], the “Leu dissolved at 30 seconds (g/16 oz.)” value is 0.465 g/16 oz. and 0.495 g/16 oz; the “Leu dissolved at 60 seconds (% of total Leu)” value is 23.9 % of total Leu and 22.3 % of total Leu; the “Leu dissolved at 60 seconds (g/16 oz.)” value was 0.838 g/16 oz. and 0.781 g/16 oz.

For `O[C@H]1[C@H](O)[C@@H](O)[C@H](O)[C@@H](O)[C@@H]1O` [scyllo-inositol], in series [2], the “Leu dissolved at 30 seconds (g/16 oz.)” value was found to be 0.450 g/16 oz, the “Leu dissolved at 60 seconds (% of total Leu)” value is given as 24.0 % of total Leu and the “Leu dissolved at 60 seconds (g/16 oz.)” value came to 0.841 g/16 oz.

Consider `OC1C(O)C(O)C(O)C(O)C1O` (stereo not drawn) [muco-inositol], for which, in series [2], the “Leu dissolved at 30 seconds (g/16 oz.)” value came to 0.379 g/16 oz, the “Leu dissolved at 60 seconds (% of total Leu)” value is on record as 21.5 % of total Leu and the “Leu dissolved at 60 seconds (g/16 oz.)” value turned out to be 0.751 g/16 oz.

Take `OC1C(O)C(O)C(O)C(O)C1O` (stereo not drawn) [allo-inositol]: in series [2], the “enhancement of dissolution rate of L-leucine by inositol isomer” value is listed as “most enhanced”, the “Leu dissolved at 30 seconds (g/16 oz.)” value came out at 0.792 g/16 oz, the “Leu dissolved at 60 seconds (% of total Leu)” value is on record as 40.4 % of total Leu and the “Leu dissolved at 60 seconds (g/16 oz.)” value was determined as 1.41 g/16 oz.

Turning to `OC1C(O)C(O)C(O)C(O)C1O` (stereo not drawn) [cis-inositol], in series [2], the “enhancement of dissolution rate of L-leucine by inositol isomer” value is reported as “most enhanced”, the “Leu dissolved at 30 seconds (g/16 oz.)” value stood at 0.649 g/16 oz, the “Leu dissolved at 60 seconds (% of total Leu)” value is on record as 36.3 % of total Leu and the “Leu dissolved at 60 seconds (g/16 oz.)” value is 1.27 g/16 oz.

The values above are taken from patent publication US11589603B2, “Powdered nutritional product containing branched-chain amino acids and a sugar alcohol” (Abbott Laboratories, priority 2015, dated 2023).
